Entries after “also recorded” stand apart in the source; their conditions may differ.
Experiments:
[1] = PET imaging in non-human primate (baboon); assay type: in vivo
Text: This ideal pharmacokinetic profile in non-human primate positions these two optimized lead radiotracers for further evaluation using kinetic modeling with an arterial plasma input function and correction for plasma fraction unbound to obtain total volume of distribution (VT), the gold standard measure for PET quantification.

COX2 [2] = target: T1, COX2 (Rattus norvegicus, UniProt P35355); test: in-vitro autoradiography in rat brain slices (self-block); assay type: binding; conditions: rat brain slices in vitro autoradiography, self-block, compared to earlier tracers
T1 construct: in-vitro autoradiography in rat brain slices; from tissue; host or cells: rat brain slices
T1 sequence (P35355 18-604): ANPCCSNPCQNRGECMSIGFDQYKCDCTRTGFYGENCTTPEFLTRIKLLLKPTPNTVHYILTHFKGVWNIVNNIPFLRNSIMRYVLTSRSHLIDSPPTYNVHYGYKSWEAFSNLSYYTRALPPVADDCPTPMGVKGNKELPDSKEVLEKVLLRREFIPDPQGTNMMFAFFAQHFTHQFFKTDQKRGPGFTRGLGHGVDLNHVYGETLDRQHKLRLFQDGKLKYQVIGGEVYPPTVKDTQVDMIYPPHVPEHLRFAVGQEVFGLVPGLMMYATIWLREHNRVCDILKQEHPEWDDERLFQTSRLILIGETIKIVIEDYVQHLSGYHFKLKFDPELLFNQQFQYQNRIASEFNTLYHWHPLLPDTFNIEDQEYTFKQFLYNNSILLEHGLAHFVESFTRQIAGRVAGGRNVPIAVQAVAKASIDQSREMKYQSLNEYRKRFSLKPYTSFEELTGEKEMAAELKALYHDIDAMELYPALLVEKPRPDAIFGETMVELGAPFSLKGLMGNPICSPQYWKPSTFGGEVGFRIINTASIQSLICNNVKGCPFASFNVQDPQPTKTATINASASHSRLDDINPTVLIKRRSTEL
Text: Three ligands have been evaluated with in-vitro autoradiography in rat brain slices. Radiolabeling was accomplished via methylation of either a sulfinate precursor ([^11C]Rofecoxib), hydroxyl precursor ([^11C]MC1) or thiol precursor ([^11C]98) using [^11C]-methyl iodide and offers chemical flexibility for radiolabeling of future candidates. […] This translated into a ˜2-fold increase in COX2 specific binding in a rat brain slice in-vitro autoradiography. […] These properties enable us to better understand the contribution of potency and free fraction to the ligand's specific binding.
Three newly synthesized COX2 ligands were successfully radiolabeled using this strategy and first evaluated by in-vitro autoradiography in rat brain slices using self-block experiments (FIG. 5). […] [^11C]36 was also evaluated for specific binding using self-block experiments in human post-mortem brain tissues (globus pallidus) from three Huntington's disease (HD) patients (FIG. 6). COX2 protein levels were quantified using immunostaining and defined as high, medium and low, respectively.

COX2 [3] = target: T1, COX2; test: rat in-vivo PET imaging (brain pharmacokinetics, self-block)

SMILES: CS(=O)(=O)c1ccc(-c2cccc(NCc3ccoc3)n2)cc1 [[^11C]47]
- brain uptake and clearance [1]: high, fast and homogeneous brain uptake along with fast clearance; also recorded: high, rapid and homogeneous brain uptake followed by fast clearance
- specific binding (COX2 [2]): significantly increased specific binding
- specific binding in vivo (COX2 [3]; rat PET, self-block experiment, between 30-60 minutes): modest but consistent specific binding
- brain pharmacokinetic (brain uptake and clearance) (COX2 [3]; rat in-vivo PET imaging): high and rapid brain uptake followed by fast clearance

From US20220348590A1, “CYCLOOXYGENASE-2 INHIBITORS AND USES THEREOF” (The Board Institute, Inc., priority 2019, published 2022)
